Reference: US10765682B2 (LAM Therapeutics, Inc., priority 2014, dated 2020)

Test system: Yulac614 melanoma cells
Test: Yulac614 cell viability (CellTiter-Glo), drug library screen and 10 point validation with/without vemurafenib
Procedure: Duplicate drug-spotted plates were prepared and to them were added Yulac614 cells which were pre-treated with either DMSO (0.01% final) or vemurafenib (6 μM final). The Yulac614 cells were grown in OptiMEM (Life Technologies) containing 5% FBS (Sigma Aldrich F2442-500ML, Lot 12D370) Penicillin/Streptomycin (100×) (CellGro Ref 30-002). 30 uL of cells were dispensed per well using a Multidrop Combi (Thermo Fisher Scientific) to give a final cell density of 2,000 cells per well.
Plates were incubated for 72 h at 37° C. under an atmosphere of 5% CO2 in a humidified incubator. Cell viability was determined with CellTiter-Glo® luminescence assay (Promega) as per the manufacturer's instructions. Viability was expressed as a percentage of control (DMSO) cells. The viability of the library drug alone was compared to the library drug+vemurafenib and significant combinations were identified.
72 hours after compound addition relative cell viability was determined by CellTiter-Glo® luminescence assay (Promega) as per the manufacturer's instructions, and values were expressed as a percentage relative to vehicle (DMSO) treated control cells (set to 100%).

SMILES: Cc1cccc(/C=N/Nc2cc(N3CCOCC3)nc(OCCc3ccccn3)n2)c1 [apilimod, (E)-4-(6-(2-(3-methylbenzylidene)hydrazinyl)-2-(2-(pyridin-2-yl)ethoxy)pyrimidin-4-yl)morpholine]
- IC20: 500 nM
